According to patent publication US12172988B2, “Anticancer and antifungal splice modulators” (priority 2021, dated 2024):

Key:
[1] = estimated, based on E7107; cited from earlier work
HCT116 tumor cells = assay: qPCR structure-splicing profile over the gene panel; format: cell-based, human; details: HCT116, 24 h, 100, 250, 500 nM, compared to 1
Procedure: (§1) HCT116 tumor cells were treated with analogues at 100 nM (light grey), 250 nM (grey), or 500 nM (black) for 24 h and then cellular RNA was isolated and purified for qPCR. Primers were designed to evaluate intron retention or exon skipping, direct responses to splice modulator treatment. Genes evaluated included those involved in splicing regulation (SF3A1, SF3A3, SF3B1, SF3B2), apoptosis (MCL-1L), and protein folding (DNAJB1), relative to the unspliced control GAPDH. For alternative splicing regulator (SF2), primers were designed to evaluate gene expression, which changes in response splice modulator treatment for SF2 relative to the unspliced control GAPDH. (—) denotes untreated cells.
(§2) For these studies, we evaluated the expression of genes involved in splicing regulation (SF3A1, SF3A3, SF3B1, SF3B2), apoptosis (MCL-1L), protein folding (DNAJB1), and cell cycle regulation (AURKA, PLK-1) relative to the unspliced control GAPDH. Primers were designed to evaluate intron retention or exon skipping, direct responses to splice modulator treatment. The master splicing regulator alternative splicing factor (SF2) was also evaluated, with the primers for this gene designed to evaluate overall gene expression, which changes in response to splice modulator treatment.
(§3) From this 4 h study (FIG. 14), a small set of analogs (1, 1b, 1g, 1d, 1e, 1i and 1j) were selected to evaluate if effects on splicing when presented for a longer 24 h period. […] Using identical procedures as that used for 4 h, HCT116 cells were treated with three concentrations (100 nM, 250 nM and 500 nM) of each analog for 24 h. Multiple concentrations were used as a means to check further validate the use of the GI50 concentration in our prior study (FIG. 14). As before, none of the concentrations tested led to significant changes in cell viability over the 24-hour time window, ensuring that changes in gene expression were not due to cell death.
(§4) Cells were treated with 1 or 1a-1j in media (McCoy's 5a (Life Technologies) supplemented with 10% FBS, 2 mM L-glutamine, and 100 U mL^−1 of penicillin and 100 μg mL^−1 of streptomycin 0.5% DMSO) for 4 h or 24 h. Untreated cells were considered were used as negative control. Total RNA was isolated using mirVana miRNA isolation kit (Life Technologies). A 1 μg sample of RNA was subjected to DNAseI from a TURBO DNA free kit (Life Technologies). The cDNA was prepared by using SuperScript III reverse transcriptase kit (Life Technologies). The amount of unspliced RNA for different genes was determined using Power SYBR Green PCR master mix (Applied Biosystems) by qPCR using specific primers for each gene. qPCR using 2.5 μM of each primer was performed on 5 ng of the obtained cDNA. qPCR conditions were as follows: 95° C. for 10 min for one cycle, then 95° C. for 10 min for one cycle, then 95° C. for 30 s, 55° C. for 60 s, 72° C. for 60 s, for 40 cycles using the MXPro. Quantification cycle (Cq) values were identified for each sample, and then RNA levels were calculated using 2-ΔΔCT method. GAPDH was used as a control for normalization. At least three replicates were conducted for each compound. Namely, all genes explored in this study were evaluated from the same cell cultures. Here, individual cultures were used for each compound explored and at least three replicates were used for each compound. While experimental variation occurred between the different compound treatments, the levels of the different intron retention, exon skipping or RNA expression were collected from the same cellular material. Statistics were calculated using a standard one-way ANOVA; p values were represented so that * signifies p<0.0001. HCT116 were treated with analogs 1-1j ranging from 0.1-5000 nM for 72 hours, then cell viability was measured using the MTS assay. GI50 values and confidence intervals were calculated using GraphPad (Table 12).

SF2 = assay: qPCR gene expression of alternative splicing factor SF2; format: cell-based, human; details: HCT116, 4 h, 20 times GI50, qPCR
Procedure: as §1, with “each analogue” for “analogues”, “20 times the G150 value (Table 12)” for “100 nM (light grey), 250 nM (grey), or 500 nM (black)”, “4 hours” for “24 h”, “(MCL-1L),” for “(MCL-1L), and”, “(DNAJB1), and cell cycle regulation (AURKA, PLK-1)” for “(DNAJB1),”, “(−)” for “(—)”
as §1
(§5) Next, we turned our efforts to explore the ability of these analogues to modulate splicing. […] We treated cells for 4 h so that we could evaluate early changes in splicing activity, and then cellular RNA was isolated and purified for analyses by qPCR (FIG. 14). Most importantly, none of the concentrations tested led to significant changes in cell viability, ensuring that changes in gene expression were not due to cell death.
as §2
From this 4 h study (FIG. 14), a small set of analogs (1, 1b, 1g, 1d, 1e, 1i and 1j) were selected to evaluate if effects on splicing when presented for a longer 24 h period. […] Using identical procedures as that used for 4 h, HCT116 cells were treated with three concentrations (100 nM, 250 nM and 500 nM) of each analog for 24 h. […]

PLK-1 = assay: qPCR splicing analysis, PLK-1 exon skipping / RNA expression; format: cell-based, human; details: HCT116, 4 h, 20 times GI50, qPCR
Procedure: as §1, with “each analogue” for “analogues”, “20 times the G150 value (Table 12)” for “100 nM (light grey), 250 nM (grey), or 500 nM (black)”, “4 hours” for “24 h”, “(MCL-1L),” for “(MCL-1L), and”, “(DNAJB1), and cell cycle regulation (AURKA, PLK-1)” for “(DNAJB1),”, “(−)” for “(—)”
as §5, §2, §3
Cells were treated with 1 or 1a-1j in media (McCoy's 5a (Life Technologies) supplemented with 10% FBS, 2 mM L-glutamine, and 100 U mL^−1 of penicillin and 100 μg mL^−1 of streptomycin 0.5% DMSO) for 4 h or 24 h. Untreated cells were considered were used as negative control. Total RNA was isolated using mirVana miRNA isolation kit (Life Technologies). A 1 μg sample of RNA was subjected to DNAseI from a TURBO DNA free kit (Life Technologies). […] The amount of unspliced RNA for different genes was determined using Power SYBR Green PCR master mix (Applied Biosystems) by qPCR using specific primers for each gene. qPCR using 2.5 μM of each primer was performed on 5 ng of the obtained cDNA. qPCR conditions were as follows: 95° C. for 10 min for one cycle, then 95° C. for 10 min for one cycle, then 95° C. for 30 s, 55° C. for 60 s, 72° C. for 60 s, for 40 cycles using the MXPro. Quantification cycle (Cq) values were identified for each sample, and then RNA levels were calculated using 2-ΔΔCT method. […] Namely, all genes explored in this study were evaluated from the same cell cultures. […]

[2] = test system: HCT116 colorectal carcinoma cells; assay: MTS cell viability / cell growth inhibition assay; format: cell-based, human; details: HCT-116 cells
Procedure: With milligram quantities of 1a-1i at hand, we began our studies to evaluate the relative efficacy of each analogue using cell growth inhibition studies in HCT116 colorectal carcinoma cells. As reported in FIG. 3, GI50 values were collected for each analog after a 72 h treatment using the MTS cell viability assay (Table 12). Under these conditions, the natural FD-895 (1), 3S-FD-895 (1a) 17S-FD-895 (1d), 17-methoxy-FD-895 (1e) provided activities of <10 nM.
HCT-116 cells was cultured in McCoy's 5a (Life Technologies) supplemented with 10% fetal bovine serum (FBS), 2 mM L-glutamine, and 100 U mL^−1 of penicillin and 100 μg mL^−1 of streptomycin at 37° C. in an atmosphere of 5% CO2. Compounds were dissolved in DMSO (MilliporeSigma). Cells were treated with 1-1j in media with ≥0.5% DMSO for 4-72 h.
Studies were conducted in […] cell culture plates. HCT-116 plated at 5×10^3 cells/well were cultured for 24 h and then treated with analogs 1-1j for 4-72 h, then washed twice with 100 μL PBS. PBS (100 μL) was added to each well, followed by 20 μL of CellTiter Aqueous One Solution (Promega). After 2 h at 37° C., absorbance readings were taken at 490 nm (test wavelength) and 690 nm (reference wavelength). GI50 values were calculated in Prism (GraphPad) using greater 3 replicates.
as §4

SMILES: CCC(OC)C(C)C1OC1C(O)C(C)/C=C/C=C(\C)C1OC(=O)CC(O)CCC(C)(O)C(OC(C)=O)/C=C/C1C (centres unmarked) [Analog 1, FD-895, reference compound]
- human maximum tolerated dose (MTD) [1]: 4 mg/m^2
- splicing activity over the genes tested (HCT116 tumor cells): altered the splicing of many of the genes tested
- down regulating the expression of SF2 RNA (SF2): highest efficacy
- effect on exon 3 inclusion in PLK-1 (PLK-1): most potent effect
- cell growth inhibitory activity compared to FD-895 [2]: potent cell growth inhibitor
